Results taken from patent US7956040B2, “Combination of catechin and quercetin for pharmaceutical or dietary use” (Giuliani International Limited, priority 2000, dated 2011).

Key:
platelets [1] = assay: Platelet function / platelet activation, overall conclusion of the study; assay type: cell-based, human; settings: individually at 5 μmol of quercetin/L or 20 μmol of catechin/L (so in the source)
platelets [2] = assay: Production of hydrogen peroxide in DCFH-DA-loaded platelets stimulated with collagen (flow cytometry); assay type: cell-based, human; settings: for production of hydrogen peroxide caused by collagen: catechin or quercetin alone, scalar concentrations (Cat 50 and 100, Q 10 and 20 μmol/L), 10 and 20 mg of collagen/L; for formation of hydrogen peroxide caused by collagen: each compound alone at the low quantities (catechin 25 μmol/L; quercetin 5 μmol/L)
Experimental: (§1) DCFH-DA was added to the PSEC (final concentration: 40 μmol/L); after 15 minutes of incubation with or without catechin or quercetin, the PSEC were activated with collagen. The reaction was stopped with 2 mmol EGTA/L after 1 min. The samples were analysed in a Coulter XL-MCL flow cytometer (Hialeah, Fla.) equipped with an argon laser (emission 480 nm) set up for measuring the logarithmic diffusion of direct light, which is a measure of the dimensions of the particle; logarithmic diffusion of light at 90°, which is a measure of the granularity of the cell; and green fluorescence (DCF) 510-550 nm. The fluorescence signal generated by the probe was expressed as the stimulation index, i.e. intensity of mean channel fluorescence of the stimulated platelets/intensity of mean channel fluorescence of the unstimulated platelets. Platelet aggregation in vitro was evaluated according to Born. The collagen was used at concentrations of 2-4 mg/L.
Flow cytometry makes use of the properties of DCFH-DA, which diffuses rapidly through the cellular membranes and is then trapped inside the cell through a reaction of deacetylation. In the presence of hydrogen peroxide, this compound is oxidized to dichlorofluorescein (DCF), which is highly fluorescent.

platelets [3] = assay: Cytosol platelet Ca2+ concentration / calcium mobilization (Fura 2) after collagen; assay type: cell-based, human; settings: for decrease in calcium mobilization: 4 mg of collagen/L; for mobilization of calcium (percentage change in intracellular calcium concentration): catechin or quercetin alone
Experimental: The concentrations of cytosol platelet Ca^2+ were measured using the fluorescent indicator dye Fura 2, according to Grynkiewicz et al.; the changes in fluorescence were then monitored with a fluorimeter SFM 25 (Kontron, Zurich, Switzerland) set at emission wavelength of 510 nm and excitation wavelength of 340 nm.

platelet aggregation = settings: high concentrations, several literature studies; cited from earlier work
phospholipase C = assay: Activation of phospholipase C: IP3 production in collagen-stimulated platelets; settings: for decrease in IP3 production: 10 mg of collagen/L; for production of [32P]IP3 in platelets stimulated by collagen: catechin or quercetin alone
Experimental: Drug-free human blood obtained from healthy volunteers was coagulated with acid:citrate:dextrose. Platelet-rich plasma was centrifuged at 800×g for 20 min at room temperature and the pellet was suspended in a volume equal to half the initial volume of autologous plasma, low in platelets. The platelet suspensions were incubated for 1 h at 37° C. with 3 μmol of Fura 2/AM per L, 40 μmol DCFH-DA/L, 7.4 GBq (2 Ci) ^32Pi/L, or 3.7 MBq (1 mCi) [^3H]oleic acid/L. The platelets were washed by exclusion chromatography on Sepharose 2B using a Ca^2+-free Tyrodes buffer (134 mmol NaCl/L, 2.9 mmol KCl/L, 0.34 mmol Na2HPO4/L and 2 mmol MgCl2/L) containing 0.2% of bovine serum albumin, 5 mmol glucose/L and 10 mmol HEPES/L, pH 7.35.
The production of 1,3,4-inositol triphosphate (IP3, an indicator of activation of phospholipase C, was analysed 30 s after platelet activation according to Pulcinelli et al. J. Chromatogr. 1992,575:51-5. The collagen was used at a concentration of 10 mg/L, which was the lowest concentration capable of inducing a reproducible response. The platelet suspensions identified with [^3H]oleic acid were used for evaluating platelet adhesion to collagen (50 mg/L) according to Smith and Dangelmaier.

platelets [4] = assay: Platelet aggregation in vitro caused by collagen (according to Born); assay type: cell-based, human; settings: for influence on platelet aggregation: 25 μmol of catechin/L or 5 μmol of quercetin/L used on their own; for platelet aggregation caused by collagen: catechin or quercetin alone, two concentrations of collagen (2 and 4 mg/L)
Experimental: as §1, with “The reaction was stopped with 2 mmol EGTA/L after 1 min.” left out

platelets [5] = assay: Platelet adhesion to collagen ([3H]oleic acid-labelled platelets); assay type: cell-based, human; settings: 50 μmol of collagen/L [sic]
Experimental: The activation of platelets by collagen is a multistage process. Thus, after being attached initially to the platelets via the pathways of the second messenger, collagen stimulates the release of thromboxane and ADP, which are important platelet agonists that induce aggregation. To study the adhesion of the platelets to collagen (50 mg/L) without the interference of aggregation and of the activation induced by all the known agonists released by the platelet granules on stimulation by collagen, the platelets were subjected to preincubation with aspirin, a cyclooxygenase inhibitor, with the ADP removal system phosphocreatine and creatine kinase, and with the fibrinogen-fibronectin antagonist RDGS (13).

[6] = 100 μmol catechin/L or 20 μmol quercetin/L
[7] = catechin (50 and 100 μmol/L) or quercetin (10 and 20 μmol/L) on their own

O=c1c(O)c(-c2ccc(O)c(O)c2)oc2cc(O)cc(O)c12 [quercetin]
effect on platelet function (platelets [1]): no effect on platelet function
production of hydrogen peroxide caused by collagen (platelets [2]): inhibited the production of hydrogen peroxide
formation of hydrogen peroxide caused by collagen (platelets [2]): neither of the two compounds alone at such low quantities is reported to have had any inhibitory effect
decrease in calcium mobilization (platelets [3]; 20 μmol of quercetin/L): 65%
mobilization of calcium (percentage change in intracellular calcium concentration) (platelets [3]): inhibited the mobilization of calcium
platelet aggregation in vitro (platelet aggregation): inhibit platelet aggregation
decrease in IP3 production (phospholipase C; 20 μmol of quercetin/L): 93%
production of [32P]IP3 in platelets stimulated by collagen (phospholipase C): inhibited
inhibition of platelet aggregation (platelets [4]; 20 μmol of quercetin/L, 2 mg/L collagen): 50%
inhibition of platelet aggregation (platelets [4]; 20 μmol of quercetin/L, 4 mg/L collagen): 43%
influence on platelet aggregation (platelets [4]): no influence on platelet aggregation
platelet aggregation caused by collagen (platelets [4]): inhibited platelet aggregation
platelet adhesion to collagen (platelets [5]; [6]): suppressed significantly
platelet adhesion to collagen (platelets [5]; [7]): inhibited platelet adhesion to collagen

Oc1ccc(C=Cc2cc(O)cc(O)c2)cc1 [resveratrol]
platelet aggregation in vitro (platelet aggregation): inhibit platelet aggregation

catechin
effect on platelet function (platelets [1]): no effect on platelet function
production of hydrogen peroxide caused by collagen (platelets [2]): inhibited the production of hydrogen peroxide
formation of hydrogen peroxide caused by collagen (platelets [2]): neither of the two compounds alone at such low quantities is reported to have had any inhibitory effect
decrease in calcium mobilization (platelets [3]; 100 μmol of catechin/L): 71%
mobilization of calcium (percentage change in intracellular calcium concentration) (platelets [3]): inhibited the mobilization of calcium
platelet aggregation in vitro (platelet aggregation): inhibit platelet aggregation
decrease in IP3 production (phospholipase C; 100 μmol of catechin/L): 50%
production of [32P]IP3 in platelets stimulated by collagen (phospholipase C): inhibited
influence on platelet aggregation (platelets [4]): no influence on platelet aggregation
inhibition of platelet aggregation (platelets [4]; 100 μmol of catechin/L, 2 mg of collagen/L): ≈ 75%
inhibition of platelet aggregation (platelets [4]; 100 μmol of catechin/L, 4 mg of collagen/L): ≈ 39%
platelet aggregation caused by collagen (platelets [4]): inhibited platelet aggregation
platelet adhesion to collagen (platelets [5]; [6]): suppressed significantly
platelet adhesion to collagen (platelets [5]; [7]): inhibited platelet adhesion to collagen
